{"source": "paper PMC11404765", "about": "(Journal of Clinical Oncology, 2024)", "key": {"PK profiles in serum": {"test": "PK profiles in serum", "format": "in vivo, human"}, "[1]": {"tested_on": "BTC harboring FGFR2 fusions or rearrangements", "conditions": "phase II trials; cited from earlier work"}, "IDH1-mutant BTC": {"tested_on": "IDH1-mutant BTC", "conditions": "phase III; cited from earlier work"}, "advanced BTC": {"tested_on": "advanced BTC", "conditions": "phase III, added to chemotherapy, first-line advanced BTC; cited from earlier work"}}, "note": "Marks after values point to notes of the source that are not given here."}
{"molecule": "CC[C@@]1(O)C(=O)OCc2c1cc1n(c2=O)Cc2c-1nc1cc(F)c(C)c3c1c2[C@@H](NC(=O)CO)CC3", "note": "[MAAA-1181a]", "values": [{"measurement": "t1/2, mean (SD)", "setting": "PK profiles in serum; n = 6", "value": "4.76 (1.02) days"}, {"measurement": "Tmax, median (range)", "setting": "PK profiles in serum; n = 7", "value": "3.88 (1.65-4.07) hours"}, {"measurement": "Cmax, mean (SD)", "setting": "PK profiles in serum; payload after T-DXd 5.4 mg/kg, n = 7", "value": "11.5 (4.65)^a ng/mL"}]}
{"molecule": "CCN1CCN(c2ccc(Nc3cc(N(C)C(=O)Nc4c(Cl)c(OC)cc(OC)c4Cl)ncn3)cc2)CC1", "note": "[infigratinib]", "values": [{"measurement": "ORR", "setting": "[1]", "value": 18.8, "unit": "%"}]}
{"molecule": "N#Cc1ccnc(N2C(=O)CC[C@H]2C(=O)N(c2cncc(F)c2)[C@H](C(=O)NC2CC(F)(F)C2)c2ccccc2Cl)c1", "note": "[ivosidenib]", "values": [{"measurement": "PFS compared with placebo", "setting": "IDH1-mutant BTC", "value": "improved"}]}
{"molecule": "CCN1C(=O)N(c2c(F)c(OC)cc(OC)c2F)Cc2cnc3[nH]c(CN4CCOCC4)cc3c21", "note": "[pemigatinib]", "values": [{"measurement": "ORR", "setting": "[1]", "value": 35.5, "unit": "%"}]}
{"molecule": "durvalumab", "values": [{"measurement": "Overall survival (OS)", "setting": "advanced BTC", "value": "improved overall survival"}]}
{"molecule": "pembrolizumab", "values": [{"measurement": "Overall survival (OS)", "setting": "advanced BTC", "value": "improved overall survival"}]}
